Legend:
[1] = test system: MLLr leukemia cell line MV4-11; experiment: Cell proliferation assay MV4;11 (CellTiter-Glo, 72 hours); type: cell-based; conditions: Homo sapiens; MV4-11 cells, 72 hours, CellTiter-Glo; read-out: MV4; 11 IC50
In short: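 Cells in IMDM/10% FBS, seeded from a 15,000 cells/ml suspension, were exposed for 72 h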

hERG = hERG (Homo sapiens, UniProt Q12809); experiment: Patch clamp assay (hERG tail currents, whole-cell)
Sequence of hERG (Q12809 whole entry): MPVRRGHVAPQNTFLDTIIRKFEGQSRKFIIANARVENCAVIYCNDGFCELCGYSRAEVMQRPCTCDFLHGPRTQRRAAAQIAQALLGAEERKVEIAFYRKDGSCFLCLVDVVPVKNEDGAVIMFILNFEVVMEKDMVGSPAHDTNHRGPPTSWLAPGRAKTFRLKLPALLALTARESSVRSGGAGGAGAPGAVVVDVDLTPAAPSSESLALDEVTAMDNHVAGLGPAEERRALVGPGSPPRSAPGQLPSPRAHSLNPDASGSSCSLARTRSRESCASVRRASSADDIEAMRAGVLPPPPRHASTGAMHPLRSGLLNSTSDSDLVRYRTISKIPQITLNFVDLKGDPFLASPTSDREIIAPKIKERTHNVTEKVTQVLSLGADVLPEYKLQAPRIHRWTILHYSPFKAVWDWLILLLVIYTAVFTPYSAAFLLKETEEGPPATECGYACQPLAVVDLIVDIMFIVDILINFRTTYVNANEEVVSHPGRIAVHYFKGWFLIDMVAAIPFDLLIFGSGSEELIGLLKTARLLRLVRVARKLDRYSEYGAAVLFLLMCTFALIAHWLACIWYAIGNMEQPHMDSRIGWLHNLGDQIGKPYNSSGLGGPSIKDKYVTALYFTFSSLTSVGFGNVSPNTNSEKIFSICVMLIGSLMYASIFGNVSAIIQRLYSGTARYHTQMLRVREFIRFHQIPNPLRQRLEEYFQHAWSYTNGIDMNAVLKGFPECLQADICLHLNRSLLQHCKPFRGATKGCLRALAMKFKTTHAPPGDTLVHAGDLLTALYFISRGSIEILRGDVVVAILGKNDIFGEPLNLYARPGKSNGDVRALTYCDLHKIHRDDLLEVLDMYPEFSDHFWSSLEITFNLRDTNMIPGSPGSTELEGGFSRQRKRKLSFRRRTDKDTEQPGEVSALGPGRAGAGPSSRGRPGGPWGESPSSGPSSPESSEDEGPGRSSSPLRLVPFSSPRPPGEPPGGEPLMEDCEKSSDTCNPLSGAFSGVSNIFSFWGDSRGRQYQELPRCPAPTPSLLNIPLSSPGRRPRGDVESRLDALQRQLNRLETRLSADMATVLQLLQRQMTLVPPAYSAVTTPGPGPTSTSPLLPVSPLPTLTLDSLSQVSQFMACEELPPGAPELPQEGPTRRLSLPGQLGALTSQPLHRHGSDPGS
Experimental: The 35 mm culture dishes upon which cells were seeded at a density allowing single cells to be recorded were placed on the dish holder of the microscope and continuously perfused (at approximately 1 mL/min) with the bath solution described in section 4.6. All solutions applied to cells including the pipette solution were maintained at room temperature (19° C. to 30° C.). After formation of a Gigaohm seal between the patch electrodes and individual hERG stably transfected HEK 293 cells (pipette resistance range: 2.0 MS to 7.0 MS; seal resistance range: >1GΩ) the cell membrane across the pipette tip was ruptured to assure electrical access to the cell interior (whole-cell patch-configuration). In case the quality of the seal was poor, the process of seal formation was repeated with a different cell and a new pipette. As soon as a stable seal could be established, hERG outward tail currents were measured upon depolarization of the cell membrane to +20 mV for 2 s (activation of channels) from a holding potential of −80 mV and upon subsequent repolarization to −40 mV for 3 s. This voltage protocol (as shown below) was run at least 10 times at intervals of 10 s. If current density was judged to be too low for measurement, another cell was recorded.
During wash-in of the test item the voltage protocol indicated above was run continuously again at 10 s intervals until the steady-state level of block was reached.
The IC50 was determined by fitting the dose response curve with a 2-parameter logistic function (amax=100%).

SMILES | IC50 [1] [nM] | hERG % Remaining (hERG; 10 μM compound) | hERG % Remaining (hERG; 30 μM compound)
Cc1ncc(S(=O)(=O)N[C@@H]2CC[C@@H](CN3CCC4(CC3)CN(c3ncncc3Oc3ccc(F)cc3C(=O)N(C(C)C)C(C)C)C4)OC2)o1 [Example 80, 5-Fluoro-N,N-diisopropyl-2-((4-(7-(((2S,5R)-5-((2-methyloxazole)-5-sulfonamido)tetrahydro-2H-pyran-2-yl)methyl)-2,7-diazaspiro[3.5]nonan-2-yl)pyrimidin-5-yl)oxy)benzamide] | < 100 | ++ (233% and ≤66%) | + (<33%)
CC(C)N(C(=O)c1cc(F)ccc1Oc1cncnc1N1CC2(CCN(C[C@@H]3CC[C@@H](NS(=O)(=O)N4CCC[C@H]4C)CO3)CC2)C1)C(C)C [Example 203, 5-Fluoro-N,N-diisopropyl-2-((4-(7-(((2S,5R)-5-(((R)-2-methylpyrrolidine)-1-sulfonamido)tetrahydro-2H-pyran-2-yl)methyl)-2,7-diazaspiro[3.5]nonan-2-yl)pyrimidin-5-yl)oxy)benzamide] | < 100 |  | + (<33%)
CC(C)N(CC(F)F)C(=O)c1cc(F)ccc1Oc1cncnc1N1CC2(CCN(C[C@@H]3CC[C@@H](NS(=O)(=O)c4cnn(C)c4)CO3)CC2)C1 [Example 100, N-(2,2-Difluoroethyl)-5-fluoro-N-isopropyl-2-((4-(7-(((2S,5R)-5-((1-methyl-1H-pyrazole)-4-sulfonamido)tetrahydro-2H-pyran-2-yl)methyl)-2,7-diazaspiro[3.5]nonan-2-yl)pyrimidin-5-yl)oxy)benzamide] | < 100 | +++ (≥66%) | +++ (≥66%)
CC(C)N(C(=O)c1cc(F)ccc1Oc1cncnc1N1CC2(CCN(C[C@@H]3CC[C@@H](NS(=O)(=O)c4cnn(C(F)F)c4)CO3)CC2)C1)C(C)C [Example 85, 2-((4-(7-(((2S,5R)-5-((1-(Difluoromethyl)-1H-pyrazole)-4-sulfonamido)tetrahydro-2H-pyran-2-yl)methyl)-2,7-diazaspiro[3.5]nonan-2-yl)pyrimidin-5-yl)oxy)-5-fluoro-N,N-diisopropylbenzamide] | < 100 | ++ (233% and ≤66%) | + (<33%)
CO[C@H]1CCN(S(=O)(=O)N[C@@H]2CC[C@@H](CN3CCC4(CC3)CN(c3ncncc3Oc3ccc(F)cc3C(=O)N(C(C)C)C(C)C)C4)OC2)C1 [Example 210, 5-Fluoro-N,N-diisopropyl-2-((4-(7-(((2S,5R)-5-(((S)-3-methoxypyrrolidine)-1-sulfonamido)tetrahydro-2H-pyran-2-yl)methyl)-2,7-diazaspiro[3.5]nonan-2-yl)pyrimidin-5-yl)oxy)benzamide] | < 100 |  | +++ (≥66%)
CCN(C(=O)c1cc(F)ccc1Oc1cncnc1N1CC2(CCN(C[C@@H]3CC[C@@H](NS(=O)(=O)c4c[nH]c(=O)c(C)c4)CO3)CC2)C1)C(C)C [Example 218, N-Ethyl-5-fluoro-N-isopropyl-2-((4-(7-(((2S,5R)-5-((5-methyl-6-oxo-1,6-dihydropyridine)-3-sulfonamido)tetrahydro-2H-pyran-2-yl)methyl)-2,7-diazaspiro[3.5]nonan-2-yl)pyrimidin-5-yl)oxy)benzamide] | < 100 |  | + (<33%)
CC(C)N(C(=O)c1cc(F)ccc1Oc1cncnc1N1CC2(CCN(C[C@@H]3CC[C@@H](NS(=O)(=O)N4CCC[C@@H]4C)CO3)CC2)C1)C(C)C [Example 202, 5-Fluoro-N,N-diisopropyl-2-((4-(7-(((2S,5R)-5-(((S)-2-methylpyrrolidine)-1-sulfonamido)tetrahydro-2H-pyran-2-yl)methyl)-2,7-diazaspiro[3.5]nonan-2-yl)pyrimidin-5-yl)oxy)benzamide] | < 100 |  | + (<33%)
CC(C)N(C(=O)c1cc(F)ccc1Oc1cncnc1N1CC2(CCN(C[C@@H]3CC[C@@H](NS(=O)(=O)c4cnn(C)c4)CO3)CC2)C1)C(C)C [Example 86, 5-Fluoro-N,N-diisopropyl-2-((4-(7-(((2S,5R)-5-((1-methyl-1H-pyrazole)-4-sulfonamido)tetrahydro-2H-pyran-2-yl)methyl)-2,7-diazaspiro[3.5]nonan-2-2-yl)pyrimidin-5-yl)oxy)benzamide] | < 100 | +++ (≥66%) | +++ (≥66%)
CO[C@@H]1CCN(S(=O)(=O)N[C@@H]2CC[C@@H](CN3CCC4(CC3)CN(c3ncncc3Oc3ccc(F)cc3C(=O)N(C(C)C)C(C)C)C4)OC2)C1 [Example 211, 5-Fluoro-N,N-diisopropyl-2-((4-(7-(((2S,5R)-5-(((R)-3-methoxypyrrolidine)-1-sulfonamido)tetrahydro-2H-pyran-2-yl)methyl)-2,7-diazaspiro[3.5]nonan-2-yl)pyrimidin-5-yl)oxy)benzamide] | < 100 |  | +++ (≥66%)
CC(C)N(C(=O)c1cc(F)ccc1Oc1cncnc1N1CC2(CCN(C[C@@H]3CC[C@@H](NS(=O)(=O)c4cnn(C5CC5)c4)CO3)CC2)C1)C(C)C [Example 83, 2-((4-(7-(((2S,5R)-5-((1-Cyclopropyl-1H-pyrazole)-4-sulfonamido)tetrahydro-2H-pyran-2-yl)methyl)-2,7-diazaspiro[3.5]nonan-2-yl)pyrimidin-5-yl)oxy)-5-fluoro-N,N-diisopropylbenzamide] | < 100 | +++ (≥66%) | ++ (233% and ≤66%)
Cc1nc(S(=O)(=O)N[C@@H]2CC[C@@H](CN3CCC4(CC3)CN(c3ncncc3Oc3ccc(F)cc3C(=O)N(C(C)C)C(C)C)C4)OC2)cs1 [Example 81, 5-Fluoro-N,N-diisopropyl-2-((4-(7-(((2S,5R)-5-((2-methylthiazole)-4-sulfonamido)tetrahydro-2H-pyran-2-yl)methyl)-2,7-diazaspiro[3.5]nonan-2-yl)pyrimidin-5-yl)oxy)benzamide] | < 100 | ++ (233% and ≤66%) | ++ (233% and ≤66%)
CC(C)N(C(=O)c1cc(F)ccc1Oc1cncnc1N1CC2(CCN(C[C@@H]3CC[C@@H](NS(=O)(=O)N4CC5COCC5C4)CO3)CC2)C1)C(C)C (stereo partly drawn) [Example 224, 5-Fluoro-2-((4-(7-(((2S,5R)-5-((hexahydro-1H-furo[3,4-c]pyrrole)-5-sulfonamido)tetrahydro-2H-pyran-2-yl)methyl)-2,7-diazaspiro[3.5]nonan-2-yl)pyrimidin-5-yl)oxy)-N,N-diisopropylbenzamide] | < 100 |  | +++ (≥66%)
CC(C)N(C(=O)c1cc(F)ccc1Oc1cncnc1N1CC2(CCN(C[C@@H]3CC[C@@H](NS(=O)(=O)c4ccn(C)n4)CO3)CC2)C1)C(C)C [Example 87, 5-Fluoro-N,N-diisopropyl-2-((4-(7-(((2S,5R)-5-((1-methyl-1H-pyrazole)-3-sulfonamido)tetrahydro-2H-pyran-2-yl)methyl)-2,7-diazaspiro[3.5]nonan-2-yl)pyrimidin-5-yl)oxy)benzamide] | < 100 |  | +++ (≥66%)
CCN(C(=O)c1cc(F)ccc1Oc1cncnc1N1CC2(CCN(C[C@@H]3CC[C@@H](NS(=O)(=O)c4c[nH]c(=O)cc4C)CO3)CC2)C1)C(C)C [Example 75, N-Ethyl-5-fluoro-N-isopropyl-2-((4-(7-(((2S,5R)-5-((4-methyl-6-oxo-1,6-dihydropyridine)-3-sulfonamido)tetrahydro-2H-pyran-2-yl)methyl)-2,7-diazaspiro[3.5]nonan-2-yl)pyrimidin-5-yl)oxy)benzamide] | < 100 |  | +++ (≥66%)
